A word on the IC50: it is the concentration at which inhibition is half-maximal. The low end stands for greater potency in that assay, the high end for weaker potency in that assay.

Structures are written as SMILES.

This assay in a line: Inhibition of VCAM-1 in human endothelial cells.

In the case of `CCOC(=O)c1cccc(Oc2cncc3sc(C(N)=O)cc23)c1` [3-(2-Carbamoyl-thieno[2,3-c]pyridin-4-yloxy)-benzoic acid ethyl ester], the IC50 was > 1000 nM. The result for `NC(=O)c1cc2c(Oc3ccc(Cl)cc3Br)cncc2s1` [4-(2-Bromo-4-chloro-phenoxy)-thieno[2,3-c]pyridine-2-carboxylic acid amide] reads 330 nM.

For `CCOC(=O)c1ccc(Oc2cncc3sc(C(N)=O)cc23)cc1` [4-(2-Carbamoyl-thieno[2,3-c]pyridin-4-yloxy)-benzoic acid ethyl ester], the IC50 is > 1000 nM. As to `NC(=O)c1cc2c(Oc3cccc(Br)c3)cncc2s1` [4-(3-Bromo-phenoxy)-thieno[2,3-c]pyridine-2-carboxylic acid amide], the IC50 is > 1000 nM. As for `NC(=O)c1cc2c(Oc3cccc(C(F)(F)F)c3)cncc2s1` [4-(3-Trifluoromethyl-phenoxy)-thieno[2,3-c]pyridine-2-carboxylic acid amide], the figure is > 1000 nM; as for `NC(=O)c1cc2c(Oc3ccc(N)cc3)cncc2s1` [4-(4-Amino-phenoxy)-thieno[2,3-c]pyridine-2-carboxylic acid amide], 64 nM. As for `Cc1cc(Cl)ccc1Oc1cncc2sc(C(N)=O)cc12` [4-(4-Chloro-2-methyl-phenoxy)-thieno[2,3-c]pyridine-2-carboxylic acid amide], the figure is > 1000 nM; as for `NC(=O)c1cc2c(Oc3ccc(Cl)c(F)c3)cncc2s1` [4-(4-Chloro-3-fluoro-phenoxy)-thieno[2,3-c]pyridine-2-carboxylic acid amide], > 1000 nM; as for `CNC(=O)c1cc2c(Oc3ccc(-n4ccnc4)cc3)cncc2s1` [4-(4-Imidazol-1-yl-phenoxy)-thieno[2,3-c]pyridine-2-carboxylic acid methylamide], 19 nM. As for `NC(=O)c1cc2c(Oc3ccc(I)cc3)cncc2s1` [4-(4-Iodo-phenoxy)-thieno[2,3-c]pyridine-2-carboxylic acid amide], the figure is > 10 nM; as for `CC(C)c1ccc(Oc2cncc3sc(C(N)=O)cc23)cc1` [4-(4-Isopropyl-phenoxy)-thieno[2,3-c]pyridine-2-carboxylic acid amide], > 100 nM. In the case of `COCc1ccc(Oc2cncc3sc(C(N)=O)cc23)cc1` [4-(4-Methoxymethyl-phenoxy)-thieno[2,3-c]pyridine-2-carboxylic acid amide], it took 23 nM to reach half-maximal inhibition (IC50).

In the case of `CNC(=O)c1cc2c(Oc3ccc(COC)cc3)cncc2s1` [4-(4-Methoxymethyl-phenoxy)-thieno[2,3-c]pyridine-2-carboxylic acid methylamide], the IC50 was > 24 nM. As for `CNC(=O)c1cc2c(Oc3ccc(N4CCOCC4)cc3)cncc2s1` [4-(4-Morpholin-4-yl-phenoxy)-thieno[2,3-c]pyridine-2-carboxylic acid methylamide], the figure is > 1000 nM; as for `CNC(=O)c1cc2c(Oc3ccc(-n4cncn4)cc3)cncc2s1` [4-(4-[1,2,4]Triazol-1-yl-phenoxy)-thieno[2,3-c]pyridine-2-carboxylic acid methylamide], 240 nM. As for `CNC(=O)c1cc2c(Oc3ccc(C=CC(=O)NCCc4cnc[nH]4)cc3)cncc2s1` [4-(4-{2-[2-(1H-Imidazol-4-yl)-ethylcarbamoyl]-vinyl}-phenoxy)-thieno[2,3-c]pyridine-2-carboxylic acid methylamide], the figure is > 1000 nM. As for `CCOCCOCCOCC(F)(F)c1ccc(Oc2cncc3sc(C(=O)NC)cc23)cc1` [4-(4-{2-[2-(2-Ethoxy-ethoxy)-ethoxy]-1,1-difluoro-ethyl}-phenoxy)-thieno[2,3-c]pyridine-2-carboxylic acid methylamide], the figure is 170 nM; as for `CNC(=O)c1cc2c(Oc3ccc(-c4ccccc4)cc3)cncc2s1` [4-(Biphenyl-4-yloxy)-thieno[2,3-c]pyridine-2-carboxylic acid methylamide], 79 nM; as for `NC(=O)c1cc2c(Oc3ccc(C(O)CO)cc3)cncc2s1` (configuration not stated) [4-[4-(1,2-Dihydroxy-ethyl)-phenoxy]-thieno[2,3-c]pyridine-2-carboxylic acid amide], 930 nM. Turning to `NC(=O)c1cc2c(Oc3ccc(C(=O)N(C(=O)NC4CCCCC4)C4CCCCC4)cc3)cncc2s1` [4-[4-(1,3-Dicyclohexyl-ureidocarbonyl)-phenoxy]-thieno[2,3-c]pyridine-2-carboxylic acid amide], the IC50 is > 1000 nM. The result for `CNC(=O)c1cc2c(Oc3ccc(-c4nnn[nH]4)cc3)cncc2s1` [4-[4-(1H-Tetrazol-5-yl)-phenoxy]-thieno[2,3-c]pyridine-2-carboxylic acid methylamide] reads > 1000 nM.

Take `COCCOCc1ccc(Oc2cncc3sc(C(N)=O)cc23)cc1` [4-[4-(2-Methoxy-ethoxymethyl)-phenoxy]-thieno[2,3-c]pyridine-2-carboxylic acid amide]: the IC50 is > 1000 nM. As for `CNC(=O)c1cc2c(Oc3ccc(COCCOC)cc3)cncc2s1` [4-[4-(2-Methoxy-ethoxymethyl)-phenoxy]-thieno[2,3-c]pyridine-2-carboxylic acid methylamide], the figure is > 1000 nM; as for `NC(=O)c1cc2c(Oc3ccc(C(=O)NCCN4CCOCC4)cc3)cncc2s1` [4-[4-(2-Morpholin-4-yl-ethylcarbamoyl)-phenoxy]-thieno[2,3-c]pyridine-2-carboxylic acid amide], > 1000 nM; as for `CNC(=O)c1cc2c(Oc3ccc(C(=O)NCCN4CCOCC4)cc3)cncc2s1` [4-[4-(2-Morpholin-4-yl-ethylcarbamoyl)-phenoxy]-thieno[2,3-c]pyridine-2-carboxylic acid methylamide], > 1000 nM. The result for `NC(=O)c1cc2c(Oc3ccc(/C=C/C(=O)NCCN(CCO)CCO)cc3)cncc2s1` [4-[4-(2-{2-[Bis-(2-hydroxy-ethyl)-amino]-ethylcarbamoyl}-vinyl)-phenoxy]-thieno[2,3-c]pyridine-2-carboxylic acid amide] reads > 1000 nM; that for `CNC(=O)c1cc2c(Oc3ccc(/C=C/C(=O)NCCN(CCO)CCO)cc3)cncc2s1` [4-[4-(2-{2-[Bis-(2-hydroxy-ethyl)-amino]-ethylcarbamoyl}-vinyl)-phenoxy]-thieno[2,3-c]pyridine-2-carboxylic acid methylamide], > 1000 nM; that for `CNC(=O)c1cc2c(Oc3ccc(-c4cncn4C)cc3)cncc2s1` [4-[4-(3-Methyl-3H-imidazol-4-yl)-phenoxy]-thieno[2,3-c]pyridine-2-carboxylic acid methylamide], > 180 nM. As for `CNC(=O)c1cc2c(Oc3ccc(-c4noc(C(F)(F)F)n4)cc3)cncc2s1` [4-[4-(5-Trifluoromethyl-[1,2,4]oxadiazol-3-yl)-phenoxy]-thieno[2,3-c]pyridine-2-carboxylic acid methylamide], the figure is > 1000 nM; as for `NC(=O)c1cc2c(Oc3ccc(C(=O)N4CCOCC4)cc3)cncc2s1` [4-[4-(Morpholine-4-carbonyl)-phenoxy]-thieno[2,3-c]pyridine-2-carboxylic acid amide], > 1000 nM.

`CNC(=O)c1cc2c(Oc3ccc(C(=N)NO)cc3)cncc2s1` [4-[4-(N-Hydroxycarbamimidoyl)-phenoxy]-thieno[2,3-c]pyridine-2-carboxylic acid methylamide]: the IC50 was > 1000 nM.

Turning to `NC(=O)c1cc2c(Oc3ccc(COC4CCCCO4)cc3)cncc2s1` (configuration not stated) [4-[4-(Tetrahydro-pyran-2-yloxymethyl)-phenoxy]-thieno[2,3-c]pyridine-2-carboxylic acid amide], the IC50 is > 1000 nM. Consider `Cc1ccc(Oc2cncc3sc(C(N)=O)cc23)cc1` [4-p-Tolyloxy-thieno[2,3-c]pyridine-2-carboxylic acid amide], for which the IC50 amounted to 11000 nM.

Regarding `NC(=O)c1cc2c(Oc3ccc(/C=C/C(=O)NCC(O)CO)cc3)cncc2s1` (configuration not stated) [4-{4-[2-(2,3-Dihydroxy-propylcarbamoyl)-vinyl]-phenoxy}-thieno[2,3-c]pyridine-2-carboxylic acid amide], the IC50 is > 1000 nM. The result for `CNC(=O)c1cc2c(Oc3ccc(/C=C/C(=O)NCC(O)CO)cc3)cncc2s1` (configuration not stated) [4-{4-[2-(2,3-Dihydroxy-propylcarbamoyl)-vinyl]-phenoxy}-thieno[2,3-c]pyridine-2-carboxylic acid methylamide] reads > 1000 nM; that for `NC(=O)c1cc2c(Oc3ccc(/C=C/C(=O)NCCN4CCOCC4)cc3)cncc2s1` [4-{4-[2-(2-Morpholin-4-yl-ethylcarbamoyl)-vinyl]-phenoxy}-thieno[2,3-c]pyridine-2-carboxylic acid amide], > 1000 nM; that for `CNC(=O)c1cc2c(Oc3ccc(/C=C/C(=O)NCCN4CCOCC4)cc3)cncc2s1` [4-{4-[2-(2-Morpholin-4-yl-ethylcarbamoyl)-vinyl]-phenoxy}-thieno[2,3-c]pyridine-2-carboxylic acid methylamide], > 1000 nM.

Source of the values: BindingDB's records for doi:10.1021/jm0101702 (Abbott Laboratories, 2001).
